According to ChEMBL document CHEMBL4342523, “Discovery and Development of S6821 and S7958 as Potent TAS2R8 Antagonists” (J Med Chem, 2020):
Activity calls are given as the source filed them. The rule behind the calls is not given here.

Tests used:
[1] = Stability of the compound in pH 5 buffer assessed as parent compound remaining measured after 24 hrs at 100 degC; type: physicochemical; settings: read-out: Stability
[2] = Stability of the compound in pH 7.1 buffer assessed as parent compound remaining measured after 60 mins at 124 degC; type: physicochemical; settings: read-out: Stability
[3] = Drug metabolism in pH 7.1 buffer assessed as hydrolytic opening of hydantoin ring by measuring compound 66 formation measured under heat condition
[4] = molecular target: T1, Taste receptor type 2 member 8 (Homo sapiens) (UniProt Q9NYW2); experiment: Competitive antagonist activity at recombinant human TAS2R8 assessed as inhibition of chloramphenicol-induced intracellular calcium level at 3 to 3000 nM preincubated for 60 secs followed by varying levels of chloramphenicol addition using Fura-2AM dye by cell-based fluorescent microscopic analysis
T1 sequence (whole entry): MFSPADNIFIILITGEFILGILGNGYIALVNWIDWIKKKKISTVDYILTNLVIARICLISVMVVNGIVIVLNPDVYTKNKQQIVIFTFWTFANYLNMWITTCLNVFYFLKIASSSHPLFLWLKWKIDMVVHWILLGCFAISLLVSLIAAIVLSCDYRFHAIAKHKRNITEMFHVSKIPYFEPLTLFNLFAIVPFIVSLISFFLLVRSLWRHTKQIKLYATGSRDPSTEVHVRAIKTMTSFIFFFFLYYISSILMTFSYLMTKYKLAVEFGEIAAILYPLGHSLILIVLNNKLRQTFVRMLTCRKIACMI

remaining at 24 h [1]: > 99%
remaining at 1 h [2]: 89%
inhibition [4]: Active
Compound: Cc1noc(C)c1Cn1cc(N2C(=O)CN(Cc3cccc(O)c3)C2=O)cn1
Drug metabolism [3]: Metabolite detected
